The source made the active and inactive calls.
Experiments:
BJ [1] = assay: BJ-TERT fibroblast viability loss – cell-based, RAS-independent, luminescence, dose response (AID 1933); format: functional; conditions: Homo sapiens
BJ [2] = assay: cells; format: functional, cell-based; conditions: Homo sapiens
BJ [3] = assay: BJ-TERT-LT-ST fibroblast viability loss – cell-based, RAS-independent, luminescence, dose response (AID 1935); format: functional; conditions: Homo sapiens;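 note: BJ fibroblasts immortalized with TERT plus LT and ST oncogenes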
[4] = DRD fibroblast viability loss – cell-based, non-viral oncogenic, luminescence, dose response (AID 1934); format: functional; conditions: Homo sapiens
H9c2 = assay: cells; format: functional, cell-based; conditions: Rattus norvegicus, H9c2, Myocardium;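 note: confirmatory concentration-response retest of ultra-high-throughput screening hits for modulation of myocardial damage; cell death induced by hydrogen peroxide oxidative stress; compound pretreatment for 60 min then peroxide exposure for 2 h; potency is for protecting the cells against peroxide damage rather than for killing them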
[5] = target: T1, Rac GTPase-activating protein 1 (Homo sapiens, UniProt Q9H0H5); assay: blockers of MgcRacGAP-driven Rac1 GTP hydrolysis – biochemical, ADP Hunter fluorescence, primary and confirmatory, confirmation (AID 624330); format: functional
T1 sequence (Q9H0H5 whole entry): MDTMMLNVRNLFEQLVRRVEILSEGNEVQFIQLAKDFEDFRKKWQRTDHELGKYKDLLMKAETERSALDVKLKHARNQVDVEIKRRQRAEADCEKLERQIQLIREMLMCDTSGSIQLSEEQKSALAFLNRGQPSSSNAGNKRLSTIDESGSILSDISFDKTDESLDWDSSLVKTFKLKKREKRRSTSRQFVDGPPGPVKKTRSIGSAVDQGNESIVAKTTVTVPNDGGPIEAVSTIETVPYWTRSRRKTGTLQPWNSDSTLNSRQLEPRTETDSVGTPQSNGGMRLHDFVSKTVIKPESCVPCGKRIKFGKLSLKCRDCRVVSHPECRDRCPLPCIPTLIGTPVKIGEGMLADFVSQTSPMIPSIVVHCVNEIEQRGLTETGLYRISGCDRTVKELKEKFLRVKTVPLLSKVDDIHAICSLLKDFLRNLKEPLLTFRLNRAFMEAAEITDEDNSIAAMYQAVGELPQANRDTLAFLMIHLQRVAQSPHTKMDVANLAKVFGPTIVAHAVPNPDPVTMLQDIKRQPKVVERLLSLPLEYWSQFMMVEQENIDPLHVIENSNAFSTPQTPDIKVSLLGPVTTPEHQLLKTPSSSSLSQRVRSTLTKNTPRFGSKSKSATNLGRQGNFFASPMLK

[6] = target: FAD-linked sulfhydryl oxidase ALR (Homo sapiens, UniProt P55789); assay: ALR-catalysed DTT oxidation blockers – biochemical, H2O2 detection, luminescence, cherry-pick, dose response (AID 493248)
[7] = target: T2, Replicative DNA helicase DnaB (Mycobacterium tuberculosis, UniProt P9WMR3); assay: DnaB intein splicing inhibitors, dose response, biochemical, cell-free fluorescence (AID 449749); format: functional
T2 sequence (P9WMR3 whole entry): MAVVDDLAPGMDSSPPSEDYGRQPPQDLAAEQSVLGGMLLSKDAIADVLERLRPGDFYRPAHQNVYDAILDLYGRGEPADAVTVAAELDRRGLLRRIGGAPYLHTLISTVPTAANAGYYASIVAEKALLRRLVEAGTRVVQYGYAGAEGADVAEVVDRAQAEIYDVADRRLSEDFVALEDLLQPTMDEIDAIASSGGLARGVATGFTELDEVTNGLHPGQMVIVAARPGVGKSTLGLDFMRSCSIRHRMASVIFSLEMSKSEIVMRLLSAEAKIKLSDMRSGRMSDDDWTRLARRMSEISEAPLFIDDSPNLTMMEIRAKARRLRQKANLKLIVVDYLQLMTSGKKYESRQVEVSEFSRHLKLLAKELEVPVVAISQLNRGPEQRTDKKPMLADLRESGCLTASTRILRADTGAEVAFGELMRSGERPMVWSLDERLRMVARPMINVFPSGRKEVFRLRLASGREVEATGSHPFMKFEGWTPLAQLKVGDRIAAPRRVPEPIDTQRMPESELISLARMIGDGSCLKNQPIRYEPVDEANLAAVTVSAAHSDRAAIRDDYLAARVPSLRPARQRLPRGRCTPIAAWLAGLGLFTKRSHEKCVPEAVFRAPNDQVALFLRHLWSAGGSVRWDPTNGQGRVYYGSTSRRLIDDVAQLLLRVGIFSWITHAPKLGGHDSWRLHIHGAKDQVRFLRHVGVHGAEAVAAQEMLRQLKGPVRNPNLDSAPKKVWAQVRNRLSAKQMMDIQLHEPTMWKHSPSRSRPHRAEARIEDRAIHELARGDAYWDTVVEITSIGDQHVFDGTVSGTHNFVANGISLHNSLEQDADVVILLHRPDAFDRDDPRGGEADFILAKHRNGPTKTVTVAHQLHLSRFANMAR

Protein RecA = target: T3, Protein RecA (Mycobacterium tuberculosis, UniProt P9WHJ3); assay: Fluorescence Cell-Free Homogeneous Dose Retest to Identify Inhibitors of RecA-Intein Splicing Activity. [Related pubchem assays (depositor defined):AID2097, AID2223, AID489010, AID492950]; format: functional
T3 sequence (P9WHJ3 whole entry): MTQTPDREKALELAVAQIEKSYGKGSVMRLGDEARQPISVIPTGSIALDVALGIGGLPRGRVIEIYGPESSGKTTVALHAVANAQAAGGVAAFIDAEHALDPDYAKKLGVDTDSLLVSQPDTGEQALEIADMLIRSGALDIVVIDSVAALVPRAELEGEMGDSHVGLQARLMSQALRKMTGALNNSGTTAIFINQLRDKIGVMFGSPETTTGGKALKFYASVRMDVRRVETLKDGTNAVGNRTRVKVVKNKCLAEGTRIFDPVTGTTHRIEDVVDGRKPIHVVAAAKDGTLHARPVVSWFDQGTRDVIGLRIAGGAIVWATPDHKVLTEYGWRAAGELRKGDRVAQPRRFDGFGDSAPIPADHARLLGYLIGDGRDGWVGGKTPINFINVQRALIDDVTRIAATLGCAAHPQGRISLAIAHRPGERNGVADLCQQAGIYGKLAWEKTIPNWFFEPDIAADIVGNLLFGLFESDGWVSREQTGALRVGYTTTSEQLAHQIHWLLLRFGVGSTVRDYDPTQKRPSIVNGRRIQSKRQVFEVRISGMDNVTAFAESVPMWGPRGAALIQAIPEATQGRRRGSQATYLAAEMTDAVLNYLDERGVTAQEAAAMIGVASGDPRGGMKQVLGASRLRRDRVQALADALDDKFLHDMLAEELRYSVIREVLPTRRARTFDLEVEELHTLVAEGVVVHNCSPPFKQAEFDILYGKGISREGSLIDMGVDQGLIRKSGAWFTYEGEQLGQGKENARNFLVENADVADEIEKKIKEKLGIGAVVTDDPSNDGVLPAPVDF

[8] = target: Luciferin 4-monooxygenase (Photinus pyralis, UniProt P08659); assay: inhibition of purified Photinus pyralis luciferase – biochemical, luminescence, dose response (AID 1891)
[9] = Luminescence Cell-Based Dose Confirmation HTS to Identify Inhibitors of Platelet Dense Granule Release. [Related pubchem assays: 1663 (Primary HTS), 1678 (Summary of Project)]; format: functional
[10] = target: T4, RNA-binding protein pos-1 (Caenorhabditis elegans, UniProt G5EF15); assay: disruptors of C. elegans POS-1 RNA interaction – biochemical, fluorescence polarization, dose response (AID 1964);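 note: purified POS-1 fused to maltose binding protein made in E. coli; potency of compounds blocking POS-1 binding to fluorescent RNA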
T4 sequence (G5EF15 whole entry): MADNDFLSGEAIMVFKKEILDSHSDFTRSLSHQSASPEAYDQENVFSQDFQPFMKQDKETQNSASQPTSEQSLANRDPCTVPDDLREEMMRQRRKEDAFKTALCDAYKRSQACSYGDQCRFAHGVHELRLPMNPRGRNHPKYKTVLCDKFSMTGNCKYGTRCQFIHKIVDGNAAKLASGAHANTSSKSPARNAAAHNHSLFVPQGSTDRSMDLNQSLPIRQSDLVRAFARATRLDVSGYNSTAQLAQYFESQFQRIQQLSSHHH

[11] = target: T5, Zinc finger protein mex-5 (Caenorhabditis elegans, UniProt Q9XUB2); assay: potency of MEX-5 RNA-binding blockers – biochemical, C. elegans, fluorescence polarization, dose response (AID 1960)
T5 sequence (Q9XUB2 whole entry): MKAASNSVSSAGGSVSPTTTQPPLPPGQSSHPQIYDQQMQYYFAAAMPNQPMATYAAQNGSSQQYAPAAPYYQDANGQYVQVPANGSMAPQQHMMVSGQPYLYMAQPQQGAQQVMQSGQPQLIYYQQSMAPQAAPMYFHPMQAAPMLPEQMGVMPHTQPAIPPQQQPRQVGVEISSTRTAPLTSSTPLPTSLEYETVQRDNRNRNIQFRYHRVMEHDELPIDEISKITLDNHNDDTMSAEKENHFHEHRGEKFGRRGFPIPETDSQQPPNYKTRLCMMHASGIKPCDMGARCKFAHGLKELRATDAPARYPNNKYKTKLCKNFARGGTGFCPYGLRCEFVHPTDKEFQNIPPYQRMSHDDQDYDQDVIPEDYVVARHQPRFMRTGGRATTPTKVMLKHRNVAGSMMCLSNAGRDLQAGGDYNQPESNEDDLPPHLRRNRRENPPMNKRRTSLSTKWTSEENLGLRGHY

Large T antigen = Large T antigen (Simian virus 40, UniProt P03070); format: functional, Betapolyomavirus macacae;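 note: Confirmatory-stage PubChem screen for compounds that inhibit SV40 T antigen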
[12] = blockers of HIV-1 envelope-mediated cell-cell fusion – cherry-pick, dose response (AID 652057); format: functional, cell-based
[13] = blockers of HIV-1 ZM109 envelope-driven cell-cell fusion – HeLa effector, CEM target cells, luciferase, cherry-pick, dose response (AID 652058); format: functional, cell-based;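 note: luciferase signal from HIV-1 Env mediated cell-cell fusion of effector and target cells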

Sequence of FAD-linked sulfhydryl oxidase ALR (P55789 whole entry): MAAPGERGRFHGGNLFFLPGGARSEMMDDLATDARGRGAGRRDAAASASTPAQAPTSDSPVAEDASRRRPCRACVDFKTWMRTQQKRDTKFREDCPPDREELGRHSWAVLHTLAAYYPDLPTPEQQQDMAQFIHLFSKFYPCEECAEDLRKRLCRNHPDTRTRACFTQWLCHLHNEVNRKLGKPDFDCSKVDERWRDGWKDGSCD
Sequence of Large T antigen (P03070 whole entry, the tested form may be a part): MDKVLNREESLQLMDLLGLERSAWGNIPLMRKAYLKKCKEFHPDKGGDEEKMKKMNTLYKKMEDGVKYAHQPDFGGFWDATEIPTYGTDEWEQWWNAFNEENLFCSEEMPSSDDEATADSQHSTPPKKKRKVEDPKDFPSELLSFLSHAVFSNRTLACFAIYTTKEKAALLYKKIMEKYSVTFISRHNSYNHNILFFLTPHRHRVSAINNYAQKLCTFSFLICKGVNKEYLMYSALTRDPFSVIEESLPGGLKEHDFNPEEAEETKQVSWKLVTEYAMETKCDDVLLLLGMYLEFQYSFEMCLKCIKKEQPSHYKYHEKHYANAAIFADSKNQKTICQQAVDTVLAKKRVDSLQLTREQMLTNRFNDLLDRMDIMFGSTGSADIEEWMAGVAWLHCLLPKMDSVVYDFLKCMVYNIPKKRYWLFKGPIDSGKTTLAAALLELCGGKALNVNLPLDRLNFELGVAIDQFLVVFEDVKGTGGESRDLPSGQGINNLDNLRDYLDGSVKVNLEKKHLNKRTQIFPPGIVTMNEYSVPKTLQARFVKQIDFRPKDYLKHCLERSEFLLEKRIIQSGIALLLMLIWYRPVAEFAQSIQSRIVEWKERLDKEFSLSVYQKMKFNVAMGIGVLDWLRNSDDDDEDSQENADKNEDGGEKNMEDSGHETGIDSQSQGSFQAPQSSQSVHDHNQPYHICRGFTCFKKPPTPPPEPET
Sequence of Luciferin 4-monooxygenase (P08659 whole entry): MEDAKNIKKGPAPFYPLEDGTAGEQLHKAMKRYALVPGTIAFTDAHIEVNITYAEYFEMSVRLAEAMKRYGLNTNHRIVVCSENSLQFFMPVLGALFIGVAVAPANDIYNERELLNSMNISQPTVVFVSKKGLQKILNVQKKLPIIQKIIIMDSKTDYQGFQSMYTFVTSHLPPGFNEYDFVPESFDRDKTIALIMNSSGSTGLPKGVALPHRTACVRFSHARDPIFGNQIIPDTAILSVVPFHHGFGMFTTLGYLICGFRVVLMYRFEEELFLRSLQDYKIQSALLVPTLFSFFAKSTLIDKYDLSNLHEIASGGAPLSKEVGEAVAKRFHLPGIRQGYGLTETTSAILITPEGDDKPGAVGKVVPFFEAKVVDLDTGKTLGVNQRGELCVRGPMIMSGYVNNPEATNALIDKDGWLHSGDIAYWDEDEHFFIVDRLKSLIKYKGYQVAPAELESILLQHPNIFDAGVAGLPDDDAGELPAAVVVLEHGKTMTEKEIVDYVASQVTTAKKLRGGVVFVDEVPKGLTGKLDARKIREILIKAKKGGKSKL

COC(=O)N1CCc2c(sc(NC(=O)C3=COCCO3)c2C#N)C1
EC50 (BJ [1]): 8.87 µM (inconclusive)
EC50 (BJ [2]): 48.9 µM (active)
EC50 (BJ [3]): 16.1 µM (active)
EC50 [4]: 12.5 µM (active)

CCN1C(=O)[C@H]2[C@H]3CN=C(SCc4ccc(C#N)cc4)N3[C@@](Cc3ccccc3)(C(=O)OC)[C@H]2C1=O
IC50 (H9c2): > 79 µM (inactive)

COc1cc(N=Nc2c(C)n(C)n(-c3ccccc3)c2=O)ccc1N
IC50 [5]: 43.4 µM (active)

COc1ccc(NC(=O)NS(=O)(=O)c2ccc(C)cc2)cc1OC
IC50 [5]: 36 µM (active)

COc1cc(-c2nc3cnccn3c2NC(C)(C)CC(C)(C)C)ccc1O
AC50 [6]: 4.22 µM (active)

O=C(COC(=O)Cc1nnc(O)c2ccccc12)Nc1c(Br)cc([N+](=O)[O-])cc1Br
IC50 (H9c2): > 79 µM (inactive)

C=CCn1c(SCC(=O)Nc2ccc(N(C)C)cc2)nnc1-c1cccc(C)c1
IC50 [5]: 42.8 µM (active)

CCOc1cc(C2C(C#N)=C(N)Oc3[nH]nc(CC)c32)ccc1OCCN1CCOCC1 (stereo not given)
AC50 [7]: 27.2 µM (active)
EC50 (Protein RecA): 7.2 µM (active)

O=C(CN(c1ccc2c(c1)OCCO2)S(=O)(=O)c1ccccc1)Nc1ccc2c(c1)OCO2
IC50 (H9c2): > 79 µM (inactive)

O=c1[nH]n(Cc2ccccc2)c(=O)c2ccccc12
IC50 (H9c2): > 79 µM (inactive)

Cc1cc(-c2nnc(S)n2/N=C/c2ccc(Cl)c([N+](=O)[O-])c2)[nH]n1
AC50 [6]: 3.45 µM (active)

N#CCSc1nc2cc(C(=O)N3CCC(C(N)=O)CC3)ccc2c2nc3ccccc3n12
IC50 (H9c2): > 79 µM (inactive)

COc1cc(-c2nnc(-c3cc(OC)c(OC)c(OC)c3)o2)cc(OC)c1OC
EC50 [8]: > 112 µM (not active)
EC50 [9]: 41 µM (active)
IC50 (H9c2): > 79 µM (inactive)

COc1cc(/C=N/Nc2nc(O)nnc2C)ccc1O
EC50 [10]: 56.8 µM (active)
EC50 [11]: 31.1 µM (active)
IC50 (Large T antigen): 6.41 µM (active)
AC50 [6]: 4.13 µM (active)

C[C@@H]1CN([C@H](C)CO)C(=O)c2cc(C#Cc3ccncc3)cnc2O[C@@H]1CN(C)S(=O)(=O)c1ccccc1F
AC50 [12]: 30 µM (active)
AC50 [13]: 25.1 µM (active)
